Numbers after ± are expanded uncertainties.
What was measured:
[1] = xn = mol fraction of the nth substance listed; conditions: 101 kPa, Liquid, x1 = 1; for electrical conductivity: Conductivity Meter Jenco 3107; for viscosity: Cone and plate viscometry
[2] = Liquid; for viscosity / electrical conductivity: 101 kPa; for viscosity: Cone and plate viscometry; for mass density: 101.33 kPa, Vibrating tube method; for electrical conductivity: Conductivity Meter Jenco 3107

| SMILES | viscosity ([2]; 293.15 K) [mPa·s] | mass density ([2]; 293.15 K) [kg/m3] | viscosity ([2]; 298.15 K) [mPa·s] | mass density ([2]; 298.15 K) [kg/m3] | viscosity ([2]; 303.15 K) [mPa·s] | mass density ([2]; 303.15 K) [kg/m3] | viscosity ([2]; 308.15 K) [mPa·s] | mass density ([2]; 308.15 K) [kg/m3] | viscosity ([2]; 313.15 K) [mPa·s] | mass density ([2]; 313.15 K) [kg/m3] | viscosity ([2]; 318.15 K) [mPa·s] | mass density ([2]; 318.15 K) [kg/m3] | viscosity ([2]; 323.15 K) [mPa·s] | mass density ([2]; 323.15 K) [kg/m3] | viscosity ([2]; 328.15 K) [mPa·s] | viscosity ([2]; 333.15 K) [mPa·s] | further results |
| --- | --- | --- | --- | --- | --- | --- | --- | --- | --- | --- | --- | --- | --- | --- | --- | --- | --- |
| CCCC[n+]1ccn(C)c1.O=S(=O)([N-]S(=O)(=O)C(F)(F)F)C(F)(F)F + CC1COC(=O)O1 | – | – | – | – | – | – | – | – | – | – | – | – | – | – | – | – | electrical conductivity ([1]; 293.15 K): 0.337 ± 0.01 S/m; viscosity ([1]; 293.15 K): 62.08 ± 6.2 mPa·s; electrical conductivity ([1]; 298.15 K): 0.4 ± 0.012 S/m; viscosity ([1]; 298.15 K): 50.05 ± 5 mPa·s; electrical conductivity ([1]; 303.15 K): 0.472 ± 0.014 S/m; viscosity ([1]; 303.15 K): 41.24 ± 4.2 mPa·s; electrical conductivity ([1]; 308.15 K): 0.552 ± 0.017 S/m; viscosity ([1]; 308.15 K): 33.65 ± 3.4 mPa·s; electrical conductivity ([1]; 313.15 K): 0.64 ± 0.019 S/m; viscosity ([1]; 313.15 K): 28.28 ± 2.8 mPa·s; electrical conductivity ([1]; 318.15 K): 0.733 ± 0.022 S/m; viscosity ([1]; 318.15 K): 23.91 ± 2.4 mPa·s; electrical conductivity ([1]; 323.15 K): 0.835 ± 0.025 S/m; viscosity ([1]; 323.15 K): 20.64 ± 2.1 mPa·s; electrical conductivity ([1]; 328.15 K): 0.944 ± 0.028 S/m; viscosity ([1]; 328.15 K): 17.9 ± 1.8 mPa·s; viscosity ([1]; 333.15 K): 15.51 ± 1.6 mPa·s |
| CC1COC(=O)O1 (configuration not stated) [4-methyl-1,3-dioxolan-2-one] | 2.86 ± 0.29 | 1204.81 ± 0.41 | 2.65 ± 0.27 | 1199.02 ± 0.4 | 2.44 ± 0.24 | 1194 ± 0.4 | 2.23 ± 0.22 | 1188.57 ± 0.39 | 2.05 ± 0.21 | 1183.11 ± 0.39 | 1.9 ± 0.19 | 1177.55 ± 0.38 | 1.78 ± 0.18 | 1171.96 ± 0.38 | 1.63 ± 0.16 | 1.54 ± 0.15 | – |
| CCCC[n+]1ccn(C)c1.O=S(=O)([N-]S(=O)(=O)C(F)(F)F)C(F)(F)F | 62.08 ± 6.2 | 1439.27 ± 0.62 | 50.05 ± 5 | 1434.3 ± 0.61 | 41.24 ± 4.2 | 1429.4 ± 0.61 | 33.65 ± 3.4 | 1424.57 ± 0.6 | 28.28 ± 2.8 | 1419.61 ± 0.6 | 23.91 ± 2.4 | 1414.67 ± 0.6 | 20.64 ± 2.1 | 1409.65 ± 0.59 | 17.9 ± 1.8 | 15.51 ± 1.6 | electrical conductivity ([2]; 293.15 K): 0.337 ± 0.01 S/m; electrical conductivity ([2]; 298.15 K): 0.4 ± 0.012 S/m; electrical conductivity ([2]; 303.15 K): 0.472 ± 0.014 S/m; electrical conductivity ([2]; 308.15 K): 0.552 ± 0.017 S/m; electrical conductivity ([2]; 313.15 K): 0.64 ± 0.019 S/m; electrical conductivity ([2]; 318.15 K): 0.733 ± 0.022 S/m; electrical conductivity ([2]; 323.15 K): 0.835 ± 0.025 S/m; electrical conductivity ([2]; 328.15 K): 0.944 ± 0.028 S/m |
